The values that follow come from ChEMBL document CHEMBL4033646, “Structure of a Myeloid cell leukemia-1 (Mcl-1) inhibitor bound to drug site 3 of Human Serum Albumin” (Bioorg Med Chem, 2017).

In test [1] the target is T1, Induced myeloid leukemia cell differentiation protein Mcl-1 (Homo sapiens, UniProt Q07820). Kind of test: Inhibition of FITC-Bak-BH3 binding to recombinant MBP-fused MCL1 (172 to 318 residues) (unknown origin) in presence of 1% FBS by TR-FRET assay.
Test [2] deals with T1, Induced myeloid leukemia cell differentiation protein Mcl-1. The test is described as follows: Inhibition of FITC-Bak-BH3 binding to recombinant MBP-fused MCL1 (172 to 318 residues) (unknown origin) by TR-FRET assay. (In general: Time-resolved FRET reads energy transfer from a long-lived donor to a nearby acceptor.)

T1 sequence (Q07820 whole entry, the tested form may be a part): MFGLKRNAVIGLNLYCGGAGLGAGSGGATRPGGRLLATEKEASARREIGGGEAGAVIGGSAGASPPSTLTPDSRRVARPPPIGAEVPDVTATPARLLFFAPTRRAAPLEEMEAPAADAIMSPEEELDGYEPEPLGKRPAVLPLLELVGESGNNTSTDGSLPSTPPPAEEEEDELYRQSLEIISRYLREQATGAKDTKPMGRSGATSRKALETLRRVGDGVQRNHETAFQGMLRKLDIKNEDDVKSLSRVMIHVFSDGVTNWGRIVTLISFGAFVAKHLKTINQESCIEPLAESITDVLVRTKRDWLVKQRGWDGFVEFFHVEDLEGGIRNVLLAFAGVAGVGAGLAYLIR

The term Ki denotes a dissociation constant, usually derived from enzyme kinetics or from competition with a known ligand. With `Cc1cc(OCCCc2c(C(=O)O)[nH]c3c(-c4c(COCCN(C)C)nn(C)c4C)cccc23)cc(C)c1Cl`, the Ki was 32 nM in test [1] and 20 nM in test [2].
In the same order, the values of `Cc1cc(OCCCc2c(C(=O)O)[nH]c3c(-c4c(C)nn(C)c4C)cccc23)cc(C)c1Cl` are 262 nM and 48 nM.
In the same order, the values of `Cc1cc(OCCCc2c(C(=O)O)[nH]c3c(-c4c(CN5CCCCC5)nn(C)c4C)cccc23)cc(C)c1Cl` are 73 nM and 22 nM.
